Our source for the IC50, inhibition and Trypsin inhibition values is publication PMC4257840 (Journal of Medicinal Chemistry, 2014).

Holding throughout (assay type): biochemical
In one assay the target is recombinant human Cat S (Homo sapiens, UniProt P25774). The assay is described as follows: Cathepsin S inhibition assay. The note with it: Table S1 counter-screening; read-out: Cathepsin S IC50. (A counterscreen serves to expose hits that act by an unwanted route or on another target.)
The target of assay [1] is T1, cathepsin H purified from human liver (Homo sapiens, UniProt P09668).
T1 construct: Tests were performed using cathepsin H purified from human liver; from tissue; host or cells: human liver
Put plainly: Protease counter-screening: Cathepsin H.
Protocol: Cathep sin H: Tests were performed using cathepsin H purified from human liver. Test compound or vehicle was pre -incubated with 3.3 mU/mL enz yme in sodium acetate buffer pH 5.5 for 15 min at 25 °C. The reaction was initiated by addition of 20 µM L-RR- AMC for another

The target in a further assay is T2, Human recombinant MMP-3 (Homo sapiens, UniProt P08254).
T2 construct: host or cells: E. coli
Put plainly: Protease counter-screening: MMP-3. As for the experimental part: (§1) Appendix 7. Protease Counter -Screening
(§2) Protease counter-screeni ng was performed using the methods described below. Initial screening was conducted in duplicate using a single test substance concentration of 10 µ M .
(§3) Additional assays were conducted in replicate for selected pairin gs of test s ubstance and enz yme in order to enable the determination of IC50 values using conventional procedures.
(§4) Determination of K i was made using the Batch K i program (Biokin Ltd, Pullman, WA) to derive values from the Morrison equation: […]
(§5) Where [E ] is the active enz yme concentration, Kiapp is the apparent inhibition const ant, v 0 is the control velocit y in the absence of inhibitors, vb is the background velocity, v is the initial reaction velocit y in the presence of inhibitor, and I is the inhibitor concentration.Thence:
(§6) Where [S ] is the substrate concentration and KM is the Michealis constant. […]
Test compound or vehicle was pre- incubated with 600 […]
The reaction was […]
initiated by addition of 1 µM N-CH3-SO2-D-FGR-pNA for another 120 min incubation period. […]
Matrix metalloprotease-3 (MMP-3 ): Human recombinant MMP-3 proenz yme expressed in E. coli was activated with 4-aminophen yl mercuric acetate (APMA) for 60 min at 37 °C. […] The amount of MCA-PLG formed was read spectrofluorimetricall y at 340 nm/400 nm.

Assay [2] addresses T3, human recombinant caspase 9 (Homo sapiens, UniProt P55211).
T3 construct: host or cells: E. coli
Put plainly: Protease counter-screening: Caspase 9. On the procedure:
as §1, §2, §3, §4, §5, §6
(§7) by addition of 50 µM Ac-DEVD-AMC for another 60 min incubation period. The amount of AMC formed was determined fluorimetricall y (excitation 360 nm/emission 465 nm). […]
(§8) by addition of 25 µM Ac-LEH D-A FC for another 60 min incubation period. The amount of amino-4- trifluorometh ylcoumarin (AFC) formed determined fluorimetrically (400nm/ 510nm).
(§9) Cathepsin C: Cathepsin C from bovine spleen was used as the source of enz yme. […] T he amount of AMC product formed was read spectrofluorimetrically

A further assay has as its system Human pancreatic trypsin. The assay is described as follows: Protease counter-screening: Trypsin. The note with it: 10 µM. As for the experimental part: as §1, §2, §3, §4, §5
Where [S ] is the substrate concentration and KM is the Michealis constant.
Caspase 1: Activity against human recombinant caspase 1 expressed in E. coli was tested using Ac-YVAD- AMC as the substrate. Test compound or vehicle was pre- incubated with 600 […]
followed by excitation/emission at 485/535 nm. […]
AMC formation was read at 360 nm/465 nm.
Cathepsin L2: Human recombinant cathepsin L2 expressed in NS0 cells was used as the enzyme source. […] Form ation of AMC was measured at 360 […]
The amount of AMC formed was read spectrofluorimetricall y at 360 nm/465 nm. […]

The target in assay [3] is T4, human recombinant caspase 3 (Homo sapiens, UniProt P42574).
T4 construct: host or cells: E. coli
Put plainly: Protease counter-screening: Caspase 3. On the procedure: as §1, §2, §3, §4, §5, §6, §7, §8, §9

Molecules are shown by their SMILES. pIC50: −log10 of the molar value.

T3 sequence (P55211 1-315 limits assumed): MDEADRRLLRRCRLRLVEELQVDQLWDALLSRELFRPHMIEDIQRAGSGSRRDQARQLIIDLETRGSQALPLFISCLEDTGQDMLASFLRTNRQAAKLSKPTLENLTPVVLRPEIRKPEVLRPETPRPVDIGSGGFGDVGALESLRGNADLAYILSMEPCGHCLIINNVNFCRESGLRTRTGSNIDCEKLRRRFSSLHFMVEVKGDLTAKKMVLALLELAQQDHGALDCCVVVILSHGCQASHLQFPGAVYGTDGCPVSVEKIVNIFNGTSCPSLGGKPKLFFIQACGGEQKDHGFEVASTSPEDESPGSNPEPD
T3 sequence (P55211 331-416 limits assumed): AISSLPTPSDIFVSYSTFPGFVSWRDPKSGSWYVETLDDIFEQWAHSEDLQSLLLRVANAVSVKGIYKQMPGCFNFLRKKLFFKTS
T4 sequence (P42574 29-175 limits assumed): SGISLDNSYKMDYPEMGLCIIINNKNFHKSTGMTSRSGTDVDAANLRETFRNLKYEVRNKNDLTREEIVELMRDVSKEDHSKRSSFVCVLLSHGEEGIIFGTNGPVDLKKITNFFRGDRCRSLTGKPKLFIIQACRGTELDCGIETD
T4 sequence (P42574 176-277 limits assumed): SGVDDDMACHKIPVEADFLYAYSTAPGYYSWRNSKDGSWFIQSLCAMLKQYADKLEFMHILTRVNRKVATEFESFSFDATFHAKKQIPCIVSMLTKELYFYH
T1 sequence (P09668 98-335): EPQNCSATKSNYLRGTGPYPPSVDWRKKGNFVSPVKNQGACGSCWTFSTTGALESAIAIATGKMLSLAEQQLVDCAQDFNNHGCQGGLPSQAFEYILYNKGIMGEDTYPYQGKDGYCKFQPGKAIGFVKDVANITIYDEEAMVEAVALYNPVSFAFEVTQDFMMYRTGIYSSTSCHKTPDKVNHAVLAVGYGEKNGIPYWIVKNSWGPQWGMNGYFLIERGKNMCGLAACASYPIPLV
T2 sequence (P08254 100-477): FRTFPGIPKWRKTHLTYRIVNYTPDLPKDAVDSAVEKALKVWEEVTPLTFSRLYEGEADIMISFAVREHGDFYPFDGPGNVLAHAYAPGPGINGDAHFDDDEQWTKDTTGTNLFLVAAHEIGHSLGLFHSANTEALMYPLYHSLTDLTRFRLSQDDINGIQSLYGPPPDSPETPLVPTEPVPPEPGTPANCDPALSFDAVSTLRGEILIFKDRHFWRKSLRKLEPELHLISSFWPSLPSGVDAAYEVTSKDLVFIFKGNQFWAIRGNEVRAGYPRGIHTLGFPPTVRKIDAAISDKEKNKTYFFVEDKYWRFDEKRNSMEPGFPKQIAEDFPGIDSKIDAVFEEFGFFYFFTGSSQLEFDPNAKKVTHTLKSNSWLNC
recombinant human Cat S, sequence (P25774 115-331): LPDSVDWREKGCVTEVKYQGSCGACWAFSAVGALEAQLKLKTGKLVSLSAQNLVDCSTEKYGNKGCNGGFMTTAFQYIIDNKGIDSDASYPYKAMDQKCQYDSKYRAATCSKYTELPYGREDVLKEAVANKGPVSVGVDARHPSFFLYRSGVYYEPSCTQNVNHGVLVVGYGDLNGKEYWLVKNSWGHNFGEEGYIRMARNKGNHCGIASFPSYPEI
Protocol for recombinant human Cat S: In all cases, for reactions involving inhibitors, the amount of reaction buffer was adjusted to 60 μL, the inhibitor added as a 10 μL aliquot, and incubated for 20 min with the enzyme prior to reaction start.

With `CC(C)[C@H](NC(=O)[C@H](C)NC(=O)[C@@H](NC(=O)c1ccccc1)C(C)(C)C)C(=O)C(=O)NCc1ccccc1` [Compound 38, N-{(S)-1-[(S)-1-((S)-1-Benzylaminooxalyl-2-methyl-propylcarbamoyl)-ethylcarbamoyl]-2,2-dimethyl-propyl}-benzamide], the pIC50 at recombinant human Cat S is 6.77. Besides, the inhibition at 10 µM was found to be 13% in assay [1], 0% at Human recombinant MMP-3, 0% in assay [2] and 1% in assay [3]. The same compound registered a Trypsin inhibition in the assay on Human pancreatic trypsin of 9%.

Broadly, the pIC50 is the negative decadic logarithm of the IC50, by convention in mol/L. In general, inhibition refers to the relative decrease from the control value, in per cent.
